From ChEMBL document CHEMBL1201862, “PubChem BioAssay data set” (2004)
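Each compound was tested at five concentrations against cells in 96-well plates for 48 hours. GI50 is the concentration that inhibits growth by half.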 Calls of active or inactive are those of the source. Cut-off read from the data, not from the text of the source: active = GI50 up to about 1.1 µM and inactive = higher.

What was measured:
Assay in all cases: NCI tumour cell line growth inhibition, 48 h
OVCAR-4 = tested on: OVCAR-4
UO-31 = tested on: UO-31
ACHN = tested on: ACHN
SR = tested on: SR
U-251 = tested on: U-251
SK-MEL-5 = tested on: SK-MEL-5
SF-539 = tested on: SF-539
RPMI-8226 = tested on: RPMI-8226
K562 = tested on: K562
NCI-H23 = tested on: NCI-H23
Malme-3M = tested on: Malme-3M
NCI-H522 = tested on: NCI-H522
SK-MEL-28 = tested on: SK-MEL-28
EKVX = tested on: EKVX
A498 = tested on: A498
HL-60 = tested on: HL-60
HCT-116 = tested on: HCT-116
OVCAR-5 = tested on: OVCAR-5
TK-10 = tested on: TK-10

Measured: GI50

O=C(CCc1cc(-c2ccco2)n(-c2ccc([N+](=O)[O-])cc2[N+](=O)[O-])n1)Nc1ccccc1
inactive: OVCAR-4 > 100 µM | UO-31 > 100 µM | ACHN > 100 µM | SR > 100 µM | U-251 > 100 µM | SK-MEL-5 > 100 µM | SF-539 > 100 µM | RPMI-8226 > 100 µM | K562 45.5 µM | NCI-H23 > 100 µM | Malme-3M 32.8 µM | NCI-H522 > 100 µM | SK-MEL-28 > 100 µM | EKVX > 100 µM | A498 > 100 µM | HL-60 49.3 µM | HCT-116 > 100 µM | OVCAR-5 > 100 µM

COc1ccc2c(c1)c(Cc1c(C)n(C)c3ccc(OC)cc13)c(C)n2C
inactive: OVCAR-4 > 100 µM | UO-31 > 100 µM | ACHN > 100 µM | SR > 100 µM | U-251 > 100 µM | SK-MEL-5 > 100 µM | SF-539 > 100 µM | RPMI-8226 > 100 µM | K562 > 100 µM | NCI-H23 > 100 µM | Malme-3M > 100 µM | NCI-H522 34 µM | SK-MEL-28 > 100 µM | EKVX > 100 µM | A498 > 100 µM | TK-10 > 100 µM | HL-60 > 100 µM | HCT-116 > 100 µM | OVCAR-5 > 100 µM

O=C1OC(c2ccccc2)=N/C1=C/NC(Cc1c[nH]cn1)C(=O)O (centres undefined)
inactive: OVCAR-4 > 100 µM | UO-31 > 100 µM | ACHN > 100 µM | SR > 100 µM | U-251 > 100 µM | SK-MEL-5 > 100 µM | SF-539 > 100 µM | RPMI-8226 > 100 µM | K562 > 100 µM | NCI-H23 > 100 µM | Malme-3M > 100 µM | NCI-H522 > 100 µM | SK-MEL-28 > 100 µM | EKVX > 100 µM | A498 > 100 µM | TK-10 > 100 µM | HL-60 > 100 µM | HCT-116 > 100 µM | OVCAR-5 > 100 µM

Cc1cc(=O)cc2sc3c(C)cccc3nc1-2
inactive: OVCAR-4 15.8 µM | UO-31 28.6 µM | ACHN 49.1 µM | SR 22.9 µM | U-251 37.1 µM | SK-MEL-5 17.7 µM | SF-539 31.1 µM | RPMI-8226 19.9 µM | K562 23.6 µM | NCI-H23 37.2 µM | Malme-3M 92.7 µM | NCI-H522 25.1 µM | SK-MEL-28 23.1 µM | A498 23.3 µM | TK-10 32.7 µM | HL-60 18.9 µM | HCT-116 22.4 µM | OVCAR-5 49.9 µM

Cc1ccc(S(=O)(=O)N2CCN(C=S)CC2)cc1
inactive: UO-31 > 100 µM | ACHN > 100 µM | SR > 100 µM | U-251 > 100 µM | SK-MEL-5 > 100 µM | SF-539 > 100 µM | K562 > 100 µM | NCI-H23 > 100 µM | Malme-3M > 100 µM | NCI-H522 > 100 µM | SK-MEL-28 > 100 µM | EKVX > 100 µM | A498 > 100 µM | TK-10 > 100 µM | HL-60 > 100 µM | HCT-116 > 100 µM | OVCAR-5 > 100 µM

O=C(CC1Sc2ccccc2NC1=O)Nc1cccc(Cl)c1 (centres undefined)
inactive: OVCAR-4 44.8 µM | UO-31 28.8 µM | ACHN 31.8 µM | SR 34 µM | U-251 30.4 µM | SK-MEL-5 40.1 µM | SF-539 72.9 µM | RPMI-8226 21.7 µM | K562 51.8 µM | NCI-H23 55.5 µM | Malme-3M 55.2 µM | SK-MEL-28 24 µM | EKVX 22.5 µM | A498 28.6 µM | TK-10 41.9 µM | HL-60 35.6 µM | HCT-116 68.5 µM | OVCAR-5 > 100 µM

CC12N=NNC1C(=O)NC2=O (centres undefined)
inactive: OVCAR-4 > 100 µM | UO-31 > 100 µM | ACHN > 100 µM | SR > 100 µM | U-251 > 100 µM | SK-MEL-5 > 100 µM | SF-539 > 100 µM | RPMI-8226 > 100 µM | K562 > 100 µM | NCI-H23 > 100 µM | NCI-H522 > 100 µM | SK-MEL-28 > 100 µM | EKVX > 100 µM | A498 89.3 µM | TK-10 > 100 µM | HL-60 > 100 µM | HCT-116 > 100 µM

CC1(C)COC(c2c(-c3ccccc3)noc2C[S+]([O-])c2ccccc2)=N1 (centres undefined)
inactive: OVCAR-4 62.8 µM | UO-31 29.2 µM | ACHN 40 µM | SR 29.1 µM | U-251 32.5 µM | SK-MEL-5 38.3 µM | SF-539 59.6 µM | RPMI-8226 22.1 µM | K562 40.9 µM | NCI-H23 32.3 µM | Malme-3M 46.1 µM | NCI-H522 36.1 µM | SK-MEL-28 33.1 µM | EKVX 96.6 µM | A498 20.3 µM | TK-10 > 100 µM | HL-60 23.9 µM | HCT-116 28.2 µM | OVCAR-5 > 100 µM

COC12C=C(C)C(CC1)CC2C(=O)O (centres undefined)
inactive: OVCAR-4 > 100 µM | UO-31 > 100 µM | ACHN > 100 µM | SR > 100 µM | U-251 > 100 µM | SK-MEL-5 > 100 µM | SF-539 > 100 µM | RPMI-8226 > 100 µM | K562 > 100 µM | NCI-H23 > 100 µM | Malme-3M > 100 µM | NCI-H522 > 100 µM | SK-MEL-28 > 100 µM | EKVX > 100 µM | A498 > 100 µM | TK-10 > 100 µM | HL-60 > 100 µM | HCT-116 > 100 µM | OVCAR-5 > 100 µM

S=C1SCC2CCCN12 (centres undefined)
inactive: OVCAR-4 > 100 µM | UO-31 > 100 µM | ACHN > 100 µM | SR > 100 µM | U-251 > 100 µM | SK-MEL-5 > 100 µM | SF-539 > 100 µM | RPMI-8226 > 100 µM | K562 > 100 µM | Malme-3M > 100 µM | NCI-H522 > 100 µM | A498 > 100 µM | TK-10 > 100 µM | HL-60 > 100 µM | HCT-116 > 100 µM | OVCAR-5 > 100 µM

CC[C@@H](C)[C@@H]1NC(=O)C(C(C)=O)=C1O
inactive: OVCAR-4 27.1 µM | UO-31 30.4 µM | ACHN 16.5 µM | SR 14.9 µM | U-251 18.8 µM | SK-MEL-5 15.6 µM | SF-539 23.1 µM | RPMI-8226 26.2 µM | K562 24 µM | NCI-H23 20.1 µM | Malme-3M 25.1 µM | NCI-H522 20.1 µM | SK-MEL-28 3.02 µM | EKVX 27.7 µM | A498 24.4 µM | TK-10 40.6 µM | HL-60 53.8 µM | HCT-116 18.7 µM | OVCAR-5 40.7 µM

C=C1C(=O)OC2C[C@H](C)C3CC(=O)C(C)=C3CC12 (some centres undefined)
inactive: OVCAR-4 14.2 µM | UO-31 11.8 µM | ACHN 12.1 µM | SR 5.56 µM | U-251 12.4 µM | SK-MEL-5 15.5 µM | SF-539 17.2 µM | RPMI-8226 4.45 µM | K562 4.47 µM | NCI-H23 13.6 µM | Malme-3M 11.8 µM | NCI-H522 1.75 µM | SK-MEL-28 5.28 µM | EKVX 16.3 µM | A498 19.5 µM | TK-10 15.8 µM | HL-60 2.33 µM | HCT-116 6.38 µM | OVCAR-5 15.1 µM

CCCCCC/C=C1\CCC(CN2CCOCC2)C1=O (centres undefined)
inactive: OVCAR-4 20.4 µM | UO-31 14.3 µM | ACHN 17.4 µM | SR 4.31 µM | U-251 15.5 µM | SK-MEL-5 18.1 µM | SF-539 16.9 µM | RPMI-8226 2.24 µM | K562 3.07 µM | NCI-H23 16.9 µM | Malme-3M 16.3 µM | NCI-H522 7.87 µM | SK-MEL-28 16.9 µM | EKVX 14.1 µM | A498 18 µM | TK-10 13.4 µM | HL-60 2.77 µM | HCT-116 14.4 µM | OVCAR-5 20.3 µM

Cn1c(=O)cc2[nH]c3ccccc3n2c1=O
inactive: OVCAR-4 27 µM | UO-31 93.3 µM | ACHN 69.7 µM | SR > 100 µM | U-251 16.2 µM | SK-MEL-5 > 100 µM | SF-539 20.3 µM | RPMI-8226 > 100 µM | K562 42.1 µM | NCI-H23 > 100 µM | Malme-3M > 100 µM | SK-MEL-28 > 100 µM | EKVX > 100 µM | A498 > 100 µM | TK-10 81.7 µM | HL-60 > 100 µM | HCT-116 > 10 µM | OVCAR-5 > 100 µM

Cn1cnc([N+](=O)[O-])c1Sc1nc2ccccc2o1
inactive: OVCAR-4 4.35 µM | UO-31 12.2 µM | ACHN 11.5 µM | SR 2.49 µM | U-251 12.6 µM | SK-MEL-5 13.3 µM | SF-539 9.64 µM | RPMI-8226 3.45 µM | K562 2.53 µM | NCI-H23 5.22 µM | Malme-3M 5.41 µM | NCI-H522 1.8 µM | SK-MEL-28 5.78 µM | EKVX 10.2 µM | A498 19.3 µM | TK-10 10.5 µM | HL-60 1.51 µM | HCT-116 3.58 µM | OVCAR-5 14.2 µM
